Results from patent US10104882B2, “Methods and compositions for preventing and treating electrophile-mediated toxicities” (priority 2013, dated 2018).
Like-named read-outs stand apart in the source and are kept apart here.

Experiments:
MN9D cells [1] = details: cited from earlier work
[2] = Prevention of NAPQI-induced GSH sulfhydryl loss by 1,3-dicarbonyl compounds (in chemico); assay type: biochemical; details: equimolar concentrations (50 μM), pH 7.4
Excerpt: FIG. 3. […] Numbers in parentheses are respective IC50 values.
FIG. 4. […] Numbers in parentheses are respective IC50 values.
(§1) However, acrolein and other electrophiles used in this research are α,β-unsaturated carbonyls, whereas NAPQI and pBQ are quinone derivatives. […] Although both compounds are relatively acidic (low pKa values), thiol protection is limited since the corresponding adduct reactions involving the enolates of these acids are likely to be reversible. […] 2-ACP was the most protective 1,3-dicarbonyl compound tested in this and other studies^54 and was, therefore, the focus of subsequent research. […] 2-ACP (50 μM) was also effective at protecting thiol loss induced by pBQ, the degradation product of NAPQI (data not shown). […] These electrophiles target nucleophilic sulfhydryl groups that play critical roles in protein function and cellular redox balance.

[3] = test system: Rat striatal synaptosomes; details: acrolein 1-1000 μM with cytoprotectant 500 μM; cited from earlier work
[4] = Electrophile concentration-dependent loss of GSH sulfhydryl groups (in chemico); assay type: biochemical; design: Log IC50: unit not given here; details: for Log IC50: logarithmic value, electrophile concentration that causes 50% loss of the GSH sulfhydryl group
Excerpt: as §1

MN9D cells [5] = details: cited from earlier work; for protection from acrolein-induced cell loss: pre-incubation
[6] = Ionization parameters (pKa, % anion); assay type: physicochemical; details: for relative enolate concentration in solution: pH 7 / neutral conditions
[7] = cited from earlier work; for thiol protection against acrolein-induced thiol loss: pH 9.0; for effect on rate of acrolein-induced sulfhydryl (thiol) loss: physiological conditions (pH 7.4)
male C57 BL mice = assay: Mouse model of oral acetaminophen (APAP) overdose hepatotoxicity/lethality; assay type: in vivo
Procedure: FIG. 7A-7B. […] Hepatoprotectants were administered 20 mins before (−20), 20 mins after (+20) or 60 mins after (+60) APAP intoxication.
A separate group received the PEG400 vehicle 20 mins prior to AAP. […] Vehicle control mice (n=10) received sequential injections of PEG400 (i.p. followed by oral). At several times post-AAP administration (2, 6, 24, 48 and 168 hrs), groups of mice were anesthetized in a carbon dioxide chamber and heparinized blood samples were collected. Samples were centrifuged and resulting serum was retained for analyses (see below). Livers were also excised, weighed and tissue samples were collected for histopathological evaluation. Remaining tissue was snap frozen in liquid nitrogen. Hepatotoxicity was determined by quantification of serum alanine aminotransferase (ALT) and aspartate aminotransferase (AST) using colorimetric assays. Serum lactate dehydrogenase (LDH) was also measured as an index of generalized AAP-induced organ toxicity. To evaluate the extent of cellular oxidative stress in liver homogenates, the unsaturated aldehyde by-products of lipid peroxidation, HNE and malondialdhyde (MDA), were determined according to a modification of the Gerard-Monnier et al. method^27. In addition, soluble thiol contents were measured in homogenates according to LoPachin et al.^44.

rat liver = assay: Acute ischemia-reperfusion injury of rat liver; assay type: in vivo, rats
Procedure: FIG. 9. Effect of 2-ACP on liver ischemia. 2-ACP (2.40 mmol/kg) or vehicle was injected i.p. 10 mins before clamping the portal vasculature for 45 mins. At the completion of the Ischemic phase, clamps were removed and the liver was reperfused for 180 mins. Following reperfusion, blood samples were removed for analysis of liver enzymes (ALT, AST) and LDH in plasma. Joining lines indicate statistically significant differences in treatment groups at ***P<0.001 level of significance.
FIG. 10. Effect of 2-ACP on liver reperfusion. 2-ACP (2.40 mmol/kg) or vehicle was injected i.p. 10 mins before restoration of hepatic circulation (reperfusion phase). At the completion of reperfusion, blood samples were removed for analysis of liver enzymes (ALT, AST) and LDH (a general enzyme indicator of tissue injury) in plasma. Joining lines indicate statistically significant differences in treatment groups at ***P<0.001 level of significance.
FIG. 11. […] At the completion of reperfusion, blood samples were removed for analysis of liver enzymes (ALT, AST) and LDH (a general enzyme indicator of tissue injury) in plasma. Joining lines indicate statistically significant differences in treatment groups at ***P<0.001 level of significance.
IR injury is the pathophysiological basis for stroke, myocardial infarction and other organ failure. It is also an underlying cause of allograft rejection following tissue transplantation. To investigate the possibility that 2-ACP and other nucleophilic dicarbonyl derivatives might be useful in preventing IR-mediated organ damage, rats were anesthetized and I/R was induced by clamping the portal vein and hepatic artery using commercially available microclips placed at the porta hepatis. The ischemic state was maintained for 45 mins, which affected approximately 70% of the liver mass. Following removal of the microclamps, hepatic reperfusion was maintained for 180 min. Animals were then sacrificed and plasma samples were taken for subsequent analysis of lactate dehydrogenase (LDH; a general enzyme indicator of cell injury) and liver enzymes (AST and ALT). […] A sham group (laparotomy only) provided baseline data for the appearance of liver enzyme in plasma. […] This level of hepatocyte leakage indicates substantial irreversible cell injury. […] Thus, prior 2-ACP administration is able to diminish the pathophysiological disposition of the ischemic phase. Further, amelioration of the ischemic phase truncates subsequent culmination of hepatocyte injury during reperfusion. To determine whether hepatoprotection was phase-specific and dose-dependent, 2-ACP (1.20-2.40 mmol/kg) was injected i.p. 10 mins prior to the restoration of hepatic circulation (reperfusion phase).

[8] = in chemico; cited from earlier work

SMILES	prevention of NAPQI-induced thiol loss [2]	change in acrolein IC50 for synaptosomal DA transport inhibition [3]	Log IC50 [4]	effect on rate of acrolein-induced sulfhydryl (thiol) loss [7]	protection from acrolein-induced cell loss (MN9D cells [5])	also measured
O=C1CCC(=O)C1 [CPD, 1,3-cyclopenanedione]	minimal thiol protection	relatively ineffective	–	–	–	protection against H2O2-induced cell death (MN9D cells [1]): ineffective
C=CC=O [Acrolein, acrolein]	–	–	1.72	–	–	CC50 (MN9D cells [5]; read-out: LC50 (acrolein concentration producing 50% cell lethality), acrolein 50-150 μM): 96 µM
CC(=O)CC(=O)C(F)(F)F [TFPD, 1,1,1-trifluoro-2,4-pentanedione]	–	relatively ineffective	–	some thiol protection	moderately protective	relative enolate concentration in solution [6]: 99%; pKa ([6]; read-out: pKa): 4.7; thiol protection against acrolein-induced thiol loss [7]: did not increase; fold protection against H2O2-induced cytotoxicity (MN9D cells [1]): 3 fold
N[C@@H](CCC(=O)N[C@@H](CS)C(=O)NCC(=O)O)C(=O)O [GSH, glutathione]	–	–	–	–	–	pKa ([6]; Table 1, read-out: pKa): 8.6; % Anion (pH = 7.4) [6]: 5.9%
CC(=O)Nc1ccc(O)cc1 [APAP, N-acetyl-p-aminophenol]	–	–	–	–	–	lethality of oral APAP overdose (male C57 BL mice; oral 500 mg/kg, mice, within 72 hrs): ~90%
CC1(C)CC(=O)CC(=O)C1 [DMD, dimedone]	ineffective	more modest	–	substantially slowed	–	pKa [6]: 5.3; fraction present as nucleophilic enolate/thiolate anion ([6]; physiological pH (7.4)): 99%
CCOC(=O)CC(=O)OCC [DEM, diethyl malonate]	–	neither DEM nor HD significantly affected the acrolein IC50	–	Neither diethyl malonate (DEM; a β-diester) nor 2,5-hexanedione (HD), a γ or 1,4-diketone, affected the rate of sulfhydryl loss	neither DEM nor HD was effective	relative enolate concentration in solution [6]: < 0.1%; thiol protection against acrolein-induced thiol loss [7]: significantly increased
CCN1C(=O)C=CC1=O [NEM, N-ethylmaleimide]	–	–	1.23	–	–	–
CC(=O)N[C@@H](CS)C(=O)O [NAC, N-acetylcysteine]	only minimal protection	more modest	–	–	completely prevented	pKa ([6]; Table 1, read-out: pKa): 9.5; % Anion (pH = 7.4) [6]: 0.8%; pKa ([6]; read-out: pKa): 9.6; protection against H2O2-induced cell death (MN9D cells [1]): significantly less efficacious; plasma liver enzymes (ALT, AST) and LDH after I/R (rat liver; i.p. 2.40 mmol/kg 10 mins before ischemia (45 min), reperfusion 180 min): did not prevent I/R liver injury; plasma liver enzymes (ALT, AST) and LDH after I/R (rat liver; i.p. 10 mins before reperfusion, 2-ACP 1.20-2.40 mmol/kg, equimolar NAC): did not prevent I/R liver injury; changes in hepatic parameters, compound alone (male C57 BL mice; compound alone, no APAP): neither NAC nor ACP alone caused significant changes
COc1cc(/C=C/C(=O)CC(=O)/C=C/c2ccc(O)c(OC)c2)ccc1O [Curcumin, curcumin]	–	–	–	–	–	pKa ([6]; Table 1, read-out: pKa): 7.8; % Anion (pH = 7.4) [6]: 28.5%
CC(=O)N=C1C=CC(=O)C=C1 [NAPQI, N-acetyl-p-benzoquinone imine]	–	–	0.92	–	–	IC50 ([4]; read-out: IC50 for NAPQI-induced GSH loss, NAPQI alone, NAPQI 2-128 μM, no protectant): 9.1 µM; second order rate constant for reaction with cysteine sulfhydryl groups [8]: 32000 M⁻¹ s⁻¹
CC(=O)CC(C)=O [AcAc, acetylacetone]	minimal thiol protection	–	–	substantially slowed	moderately protective	pKa [6]: 9.0; thiol protection against acrolein-induced thiol loss [7]: virtually complete
O=C1C=CC(=O)C=C1 [pBQ, p-benzoquinone]	–	–	1.06	–	–	–
CC1(C)OC(=O)CC(=O)O1 [MA, Meldrum's acid]	ineffective	more modest	–	substantially slowed	–	–
CC(C)(C)C1=CC(=O)C=CC1=O [tBQ, tert-butylquinone]	–	–	1.24	–	–	–
CC(=O)CCC(C)=O [HD, 2,5-hexanedione]	–	neither DEM nor HD significantly affected the acrolein IC50	–	Neither diethyl malonate (DEM; a β-diester) nor 2,5-hexanedione (HD), a γ or 1,4-diketone, affected the rate of sulfhydryl loss	neither DEM nor HD was effective	protection against H2O2-induced cell death (MN9D cells [1]): ineffective
